Measurements reported in patent US20060004104A1, “Methods and compositions for treatment of cancer pain” (priority 2002, published 2006).

Key:
Type in all cases: in vivo
[1] = test system: intra-tibial MRMT-1 rat mammary gland carcinoma cells (bone cancer pain); assay: Rat model of bone cancer pain: weight-bearing difference (hind limb sparing); conditions: for weight-bearing difference between contralateral and ipsilateral paw: measured 1 hour after drug administration
Experimental: Adult female rats are given intra-tibial injections of MRMT-1 rat mammary gland carcinoma cells (3 μl, 10^7 cells/ml). These animals gradually develop mechanical hyperalgesia, mechanical allodynia (skin sensitivity to non-noxious stimuli) and hind limb sparing, beginning on day 12-14 following cell injection. […] Intra-tibial inoculation of MRMT-1 cells induces a time-dependent hypersensitivity in the ipsilateral limb, measured as a shift in body weight to the contralateral limb. The increase in weight-bearing difference between contralateral and ipsilateral paw (weight shift from the affected to the unaffected limb) is evident by day 14 post-inoculation and continues to increase until day 20. […] This effect is significant for COX189 on days 10, 14, 17 and 20 as well as for valdecoxib (30 mg/kg, p.o.) on day 20. […] Lower doses are not studied. […] The treatments induces a progressive and long-lasting reduction in hypersensitivity, since the weight-bearing difference is also attenuated when measured 1 h before the first daily treatment. This preventative effect reaches significant levels for all three treatments on days 14 and 17. There is no significant difference between the effects measured before and after COX189 administration on each day for any individual treatment.

[2] = test system: intra-tibial MRMT-1 rat mammary gland carcinoma cells (bone cancer pain); assay: Rat model of bone cancer pain: mechanical allodynia (static and dynamic); conditions: day 20; for static allodynia (punctuate stimulus), ipsilateral paw: 90 minutes after the last administration
Experimental: Adult female rats are given intra-tibial injections of MRMT-1 rat mammary gland carcinoma cells (3 μl, 10^7 cells/ml). These animals gradually develop mechanical hyperalgesia, mechanical allodynia (skin sensitivity to non-noxious stimuli) and hind limb sparing, beginning on day 12-14 following cell injection.

[3] = test system: intra-tibial MRMT-1 rat mammary gland carcinoma cells (bone cancer); assay: Rat model of bone cancer pain: radiologically observed structural changes and bone mineral density
Experimental: Adult female rats are given intra-tibial injections of MRMT-1 rat mammary gland carcinoma cells (3 μl, 10^7 cells/ml).

[4] = 30 mg/kg repeated administration, day 20

Row | Structure (SMILES) | weight-bearing difference between contralateral and ipsilateral paw ([1]; 10 mg/kg p.o. repeated from day 10 post-inoculation, days 14, 17 and 20) | weight-bearing difference between contralateral and ipsilateral paw ([1]; 30 mg/kg p.o. repeated from day 10 post-inoculation, days 14, 17 and 20) | dose-dependence of the effect on weight-bearing difference ([1]; 10 versus 30 mg/kg p.o.) | static allodynia (punctuate stimulus), ipsilateral paw ([2]; 10 mg/kg p.o. repeated) | dynamic allodynia (light stroking of the skin), ipsilateral paw ([2]; 30 mg/kg p.o. repeated) | static allodynia (punctuate stimulus), ipsilateral paw ([2]; 30 mg/kg p.o. repeated) | radiologically observed structural changes ([3]; 10 mg/kg repeated administration, day 20) | loss of bone mineral density compared to vehicle treated animals [3, 4] | radiologically observed structural changes [3, 4] | radiologically observed structural changes in an animal model of bone cancer pain ([3]; summary statement, no dose given) | weight-bearing difference between contralateral and ipsilateral paw ([1]; 30 mg/kg p.o. repeated, day 20)
1 | Cc1ccc(Nc2c(F)cccc2Cl)c(CC(=O)O)c1 [COX189, 5-methyl-2-(2′-chloro-6′-fluoroanilino)-phenylacetic acid] | significantly attenuates | significantly attenuates | not dose-dependent | significantly reverses | reaches statistical significance | significantly reverses | significantly inhibits | significantly inhibit | significantly inhibits | inhibit | –
2 | Cc1onc(-c2ccccc2)c1-c1ccc(S(N)(=O)=O)cc1 [valdecoxib, reference compound] | – | – | – | – | – | significantly reverses | – | – | – | – | significant
